Reference: patent US20250090699A1, “FAP TARGETING CYCLIC PEPTIDES AND CONJUGATES THEREOF” (Novartis AG, priority 2023, published 2025)
Counter-ions that a name gives are not always drawn. Starred links: 1 amine or outer side, 2 acyl side, 3 side chain; linkers in the order of their positions; H or OH if unused. Non-standard residues stand in square brackets, D forms with d. Residues, ends and D or L forms follow the SMILES beside them. Groups on a side chain read outwards from the residue. *: point of attachment. X9 = O=C(O)CN1CCN(CC(=O)O)CCN([C@H](CCC(=O)*)C(=O)O)CCN(CC(=O)O)CC1; AAZTA5 = O=C(O)CN1CCN(CC(=O)O)CC(CCCCC(=O)*)(N(CC(=O)O)CC(=O)O)C1; DOTA = O=C(O)CN1CCN(CC(=O)O)CCN(CC(=O)*)CCN(CC(=O)O)CC1; NODAGA = O=C(O)CN1CCN(CC(=O)O)CCN(C(CCC(=O)*)C(=O)O)CC1; NOTA = O=C(O)CN1CCN(CC(=O)O)CCN(CC(=O)*)CC1; Phe(4-CH2NH2) = NCc1ccc(C[C@H](N)C(=O)O)cc1; Piperazinyl(4-CH2COOH) = O=C(O)CN1CCN(*)CC1; 3Pal(6-NH2) = Nc1ccc(C[C@H](N)C(=O)O)cn1; AEF = NCCOc1ccc(C[C@H](N)C(=O)O)cc1; NMeF = CN[C@@H](Cc1ccccc1)C(=O)O; Ahp(2) = CCCCC[C@H](N)C(=O)O; hSer = N[C@@H](CCO)C(=O)O; AEEA = NCCOCCOCC(=O)O; CO = O=C([*:1])[*:2]; Propyl = CCC*

Key:
human FAP = target: T1, human FAP (Homo sapiens, UniProt Q12884); experiment: Enzymatic FAP competition assay (Z-Gly-Pro-AMC fluorescence), human FAP; format: biochemical; conditions: read-out: h. FAP, Enz., IC50
T1 construct: the biotinylated His, Avi tag, human FAP (26-760, FAP-H82Q6); His; Avi tag (biotinylated); purchased AcroBiosystems FAP-H82Q6
T1 sequence (Q12884 26-760): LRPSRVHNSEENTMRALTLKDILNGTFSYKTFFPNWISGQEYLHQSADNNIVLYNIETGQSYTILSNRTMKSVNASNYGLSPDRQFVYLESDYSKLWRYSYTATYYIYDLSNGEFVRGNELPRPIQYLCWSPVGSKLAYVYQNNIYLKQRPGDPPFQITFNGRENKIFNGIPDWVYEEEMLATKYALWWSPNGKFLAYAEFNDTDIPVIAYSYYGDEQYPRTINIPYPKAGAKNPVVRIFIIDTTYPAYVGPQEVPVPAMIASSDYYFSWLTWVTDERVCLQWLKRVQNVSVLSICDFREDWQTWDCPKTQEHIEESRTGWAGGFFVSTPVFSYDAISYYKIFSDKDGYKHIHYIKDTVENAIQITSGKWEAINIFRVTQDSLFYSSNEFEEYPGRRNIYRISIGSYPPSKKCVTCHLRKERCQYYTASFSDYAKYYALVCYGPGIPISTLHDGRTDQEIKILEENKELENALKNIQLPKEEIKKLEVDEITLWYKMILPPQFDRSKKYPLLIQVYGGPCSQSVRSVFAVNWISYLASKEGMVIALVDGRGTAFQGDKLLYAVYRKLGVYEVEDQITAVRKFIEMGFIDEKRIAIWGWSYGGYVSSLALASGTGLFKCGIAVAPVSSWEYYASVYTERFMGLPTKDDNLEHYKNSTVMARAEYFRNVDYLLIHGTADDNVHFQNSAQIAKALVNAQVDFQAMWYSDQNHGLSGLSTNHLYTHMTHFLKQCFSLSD
Procedure, shortened: (§1)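 IC50 values come from curve fitting of duplicate % inhibition data on AMC fluorescence (ex 380, em 460 nm) after 4 h at 22-24° C with 50 μM Z-Gly-Pro-AMC. Beforehand, peptides up to 1 μM (14 levels) sat 24 h with 0.01 nM human (26-760) or mouse (26-761) tagged FAP in phosphate buffer pH 7.5, NaCl, Tween20, 1% DMSO.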

mouse FAP [1] = target: T2, mouse FAP (Mus musculus, UniProt P97321); experiment: Enzymatic FAP competition assay (Z-Gly-Pro-AMC fluorescence), mouse FAP; format: biochemical; conditions: read-out: m. FAP, Enz., IC50
T2 construct: biotinylated His, Avi tag, mouse FAP (26-761, FAP-M82Q5); His; Avi tag (biotinylated); purchased AcroBiosystems FAP-M82Q5
T2 sequence (P97321 26-761): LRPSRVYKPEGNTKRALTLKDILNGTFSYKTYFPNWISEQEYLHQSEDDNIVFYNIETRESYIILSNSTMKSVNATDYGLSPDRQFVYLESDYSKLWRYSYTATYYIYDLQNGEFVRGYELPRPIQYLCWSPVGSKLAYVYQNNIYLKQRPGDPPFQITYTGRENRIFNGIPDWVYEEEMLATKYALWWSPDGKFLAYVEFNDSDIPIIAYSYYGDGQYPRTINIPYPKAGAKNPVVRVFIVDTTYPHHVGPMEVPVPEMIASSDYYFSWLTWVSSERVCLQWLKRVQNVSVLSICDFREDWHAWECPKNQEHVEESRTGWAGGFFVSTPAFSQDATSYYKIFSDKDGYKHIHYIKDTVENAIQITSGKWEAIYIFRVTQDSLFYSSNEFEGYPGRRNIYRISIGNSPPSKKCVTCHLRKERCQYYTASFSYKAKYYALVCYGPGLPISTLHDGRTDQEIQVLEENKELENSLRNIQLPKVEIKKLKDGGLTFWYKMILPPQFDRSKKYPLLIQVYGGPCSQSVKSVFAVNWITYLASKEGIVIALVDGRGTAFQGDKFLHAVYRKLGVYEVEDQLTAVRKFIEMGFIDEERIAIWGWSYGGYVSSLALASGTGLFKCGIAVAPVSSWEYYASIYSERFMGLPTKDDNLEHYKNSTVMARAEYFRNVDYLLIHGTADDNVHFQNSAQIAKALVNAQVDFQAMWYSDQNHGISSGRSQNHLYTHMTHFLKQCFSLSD
Procedure, shortened: as §1

mouse FAP [2] = target: T2, mouse FAP; experiment: Surface plasmon resonance (SPR) for peptide affinity, mouse FAP; format: binding
Procedure, shortened: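 KD values come from a 1:1 kinetic fit of single-cycle SPR data: 8 peptide concentrations, 25 °C, 30 μL/min, HEPES-buffered saline pH 7.6 with 2% DMSO. Targets were His/Avi-tagged human (26-760) or mouse (26-761) FAP, amine-coupled to CM5 or held on a CAPture chip.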

Row | SMILES | IC50 (human FAP) [nM] | IC50 (mouse FAP [1]) [nM] | Kd (mouse FAP [2]) [nM]
1 | CCCCC[C@@H]1NC(=O)[C@H](Cc2ccc(CNC(=O)COCCOCCNC(=O)CN3CCN(CC(=O)O)CCN(CC(=O)O)CCN(CC(=O)O)CC3)cc2)NC(=O)[C@H](Cc2ccccc2)N(C)C(=O)CNC(=O)CNC(=O)[C@H]2CCCN2C(=O)[C@H](CC(=O)O)NC(=O)[C@H](Cc2ccc(O)cc2)NC(=O)CNC(=O)[C@H](Cc2c[nH]c3ccccc23)NC1=O [Example B16, Gly-Gly-NMePhe-F(4amPEG2NHDOTA)-Ahp-Trp-Gly-Tyr-Asp-D-Pro, TFA salt] (cyclo([Ahp(2)]WGYD[dP]GG[NMeF][Phe(4-CH2NH2)]([AEEA-DOTA]))) | 0.009 | 0.03 | 0.01
2 | CCCCC[C@@H]1NC(=O)[C@H](Cc2ccc(CNC(=O)CN3CCN(CC(=O)O)CCN(CC(=O)O)CCN(CC(=O)O)CC3)cc2)NC(=O)[C@H](Cc2ccccc2)N(C)C(=O)CNC(=O)CNC(=O)[C@H]2CCCN2C(=O)[C@H](CC(=O)O)NC(=O)[C@H](Cc2ccc(O)cc2)NC(=O)CNC(=O)[C@H](Cc2c[nH]c3ccccc23)NC1=O [Example B17, Gly-Gly-NMePhe-F(4amDOTA)-Ahp-Trp-Gly-Tyr-Asp-D-Pro, TFA salt] (cyclo([Ahp(2)]WGYD[dP]GG[NMeF][Phe(4-CH2NH2)](DOTA))) | 0.033 | 0.158 | 0.133
3 | CCCCC[C@@H]1NC(=O)[C@H](Cc2ccc(OCCNC(=O)CN3CCN(CC(=O)O)CCN(CC(=O)O)CCN(CC(=O)O)CC3)cc2)NC(=O)[C@H](Cc2ccccc2)N(C)C(=O)CNC(=O)CNC(=O)[C@H]2CCCN2C(=O)[C@H](CC(=O)O)NC(=O)[C@H](Cc2ccc(O)cc2)NC(=O)CNC(=O)[C@H](Cc2c[nH]c3ccccc23)NC1=O [Example B23, Gly-Gly-NMePhe-F(4OEtNHDOTA)-Ahp-Trp-Gly-Tyr-Asp-D-Pro, TFA salt] (cyclo([AEF](DOTA)[Ahp(2)]WGYD[dP]GG[NMeF])) | 0.012 | 0.059 | 0.077
4 | CCCCC[C@@H]1NC(=O)[C@H](Cc2ccc(OCCNC(=O)CN3CCN(CC(=O)O)CCN(CC(=O)O)CCN(CC(=O)O)CC3)cc2)NC(=O)[C@H](Cc2ccccc2)N(C)C(=O)CNC(=O)CNC(=O)[C@H]2CCCN2C(=O)[C@H](CC(=O)O)NC(=O)[C@H](Cc2ccc(N)nc2)NC(=O)CNC(=O)[C@H](Cc2c[nH]c3ccccc23)NC1=O [Example B24, Gly-Gly-NMePhe-F(4OEtNHDOTA)-Ahp-Trp-Gly-3PyA(6NH2)-Asp-D-Pro, TFA salt] (cyclo([AEF](DOTA)[Ahp(2)]WG[3Pal(6-NH2)]D[dP]GG[NMeF])) | 0.012 | 0.108 | 0.066
5 | CCCCC[C@@H]1NC(=O)[C@H](Cc2ccc(OCCNC(=O)CN3CCN(CC(=O)O)CCN(CC(=O)O)CCN(CC(=O)O)CC3)cc2)NC(=O)[C@H](Cc2ccccc2)N(C)C(=O)CNC(=O)[C@H](CCCCNC(=O)N2CCN(CC(=O)O)CC2)NC(=O)[C@H]2CCCN2C(=O)[C@H](CC(=O)O)NC(=O)[C@H](Cc2ccc(O)cc2)NC(=O)CNC(=O)[C@H](Cc2c[nH]c3ccccc23)NC1=O [Example B25, K(COpipzaa)-Gly-NMePhe-F(4OEtNHDOTA)-Ahp-Trp-Gly-Tyr-Asp-D-Pro] (cyclo([AEF](DOTA)[Ahp(2)]WGYD[dP]K([CO-Piperazinyl(4-CH2COOH)])G[NMeF])) | 0.1 | 0.38 | 0.44
6 | CCCCC[C@@H]1NC(=O)[C@H](Cc2ccc(OCCNC(=O)CN3CCN(CC(=O)O)CCN(CC(=O)O)CCN(CC(=O)O)CC3)cc2)NC(=O)[C@H](Cc2ccccc2)N(C)C(=O)CNC(=O)[C@H](CCO)NC(=O)[C@H]2CCCN2C(=O)[C@H](CC(=O)O)NC(=O)[C@H](Cc2ccc(O)cc2)NC(=O)CNC(=O)[C@H](Cc2c[nH]c3ccccc23)NC1=O [Example B26, hSer-Gly-NMePhe-F(4OEtNHDOTA)-Ahp-Trp-Gly-Tyr-Asp-D-Pro, TFA salt] (cyclo([hSer]G[NMeF][AEF](DOTA)[Ahp(2)]WGYD[dP])) | 0.027 | 0.117 | 0.105
7 | CCCCC[C@@H]1NC(=O)[C@H](Cc2ccc(OCCNC(=O)CC[C@H](C(=O)O)N3CCN(CC(=O)O)CCN(CC(=O)O)CCN(CC(=O)O)CC3)cc2)NC(=O)[C@H](Cc2ccccc2)N(C)C(=O)CNC(=O)CNC(=O)[C@H]2CCCN2C(=O)[C@H](CC(=O)O)NC(=O)[C@H](Cc2ccc(O)cc2)NC(=O)CNC(=O)[C@H](Cc2c[nH]c3ccccc23)NC1=O [Example B30, Gly-Gly-NMePhe-F(4OEtNHRDOTAGA)-Ahp-Trp-Gly-Tyr-Asp-D-Pro] (cyclo([AEF](X9)[Ahp(2)]WGYD[dP]GG[NMeF])) | 0.019 | 0.118 | 0.119
8 | CCCOCC[C@@H]1NC(=O)[C@H](Cc2ccc(CNC(=O)COCCOCCNC(=O)CCCCC3(N(CC(=O)O)CC(=O)O)CN(CC(=O)O)CCN(CC(=O)O)C3)cc2)NC(=O)[C@H](Cc2ccccc2)N(C)C(=O)CNC(=O)CNC(=O)[C@H]2CCCN2C(=O)[C@H](CC(=O)O)NC(=O)[C@H](CCCCNC(=O)N2CCN(CC(=O)O)CC2)NC(=O)CNC(=O)[C@H](Cc2c[nH]c3ccccc23)NC1=O [Example B31, Gly-Gly-NMePhe-F(4amPEG2NHAAZTA)-hS(Pr)-Trp-Gly-K(COpipzaa)-Asp-D-Pro] (cyclo(D[dP]GG[NMeF][Phe(4-CH2NH2)]([AEEA-AAZTA5])[hSer](Propyl)WGK([CO-Piperazinyl(4-CH2COOH)]))) | 0.03 | 0.1 | 0.25
9 | CCCOCC[C@@H]1NC(=O)[C@H](Cc2ccc(CNC(=O)COCCOCCNC(=O)CCC(C(=O)O)N3CCN(CC(=O)O)CCN(CC(=O)O)CC3)cc2)NC(=O)[C@H](Cc2ccccc2)N(C)C(=O)CNC(=O)CNC(=O)[C@H]2CCCN2C(=O)[C@H](CC(=O)O)NC(=O)[C@H](CCCCNC(=O)N2CCN(CC(=O)O)CC2)NC(=O)CNC(=O)[C@H](Cc2c[nH]c3ccccc23)NC1=O (stereo partly drawn) [Example B33, Gly-Gly-NMePhe-F(4amPEG2NHNODAGA)-hS(pr)-Trp-Gly-K(COpipzaa)-Asp-D-Pro] (cyclo(D[dP]GG[NMeF][Phe(4-CH2NH2)]([AEEA-NODAGA])[hSer](Propyl)WGK([CO-Piperazinyl(4-CH2COOH)]))) | 0.015 | 0.039 | < 0.034
10 | CCCOCC[C@@H]1NC(=O)[C@H](Cc2ccc(CNC(=O)COCCOCCNC(=O)CN3CCN(CC(=O)O)CCN(CC(=O)O)CC3)cc2)NC(=O)[C@H](Cc2ccccc2)N(C)C(=O)CNC(=O)CNC(=O)[C@H]2CCCN2C(=O)[C@H](CC(=O)O)NC(=O)[C@H](CCCCNC(=O)N2CCN(CC(=O)O)CC2)NC(=O)CNC(=O)[C@H](Cc2c[nH]c3ccccc23)NC1=O [Example B34, Gly-Gly-NMePhe-F(4amPEG2NHNOTA-hS(Pr)-Trp-Gly-K(COpipzaa)-Asp-D-Pro] (cyclo(D[dP]GG[NMeF][Phe(4-CH2NH2)]([AEEA-NOTA])[hSer](Propyl)WGK([CO-Piperazinyl(4-CH2COOH)]))) | 0.007 | 0.017 | < 0.034
